Results filed as inconclusive are left out.
Each compound was assayed against Plasmodium falciparum Hsp90 (expressed in yeast GR reporter strain) (assay: decrease of GR reporter signal in PfHsp90 yeast, dose response, S. cerevisiae, beta-gal luminescence, dry powder samples (AID 602160)).

| AC50 [µM] | SMILES |
| --- | --- |
| 15.1 | O=S(=O)(/C=C/c1ccccc1)NC1CCCCCCC1 |
| 10.7 | O=S(=O)(NC1CCCCCC1)c1ccc(Br)s1 |
| 20.2 | Cc1ccc(OCc2n[nH]c(=S)n2C2CCCCC2)cc1 |
| 19.6 | O=C(CSCC(=O)N1CCCCC1)Nc1nc(-c2ccc(Cl)s2)cs1 |

Source: PubChem BioAssay AID602160 (Broad Institute, 2011)
